In ChEMBL document CHEMBL1138819, “Synthesis and biological evaluation of pteridine and pyrazolopyrimidine based adenosine kinase inhibitors” (Bioorg Med Chem Lett, 2004):

Molecular target: Adenosine kinase (Homo sapiens, UniProt P55263)
Experiment: In vitro inhibitory concentration against Adenosine kinase in cycstolic assay

Chain of Adenosine kinase (P55263 whole entry): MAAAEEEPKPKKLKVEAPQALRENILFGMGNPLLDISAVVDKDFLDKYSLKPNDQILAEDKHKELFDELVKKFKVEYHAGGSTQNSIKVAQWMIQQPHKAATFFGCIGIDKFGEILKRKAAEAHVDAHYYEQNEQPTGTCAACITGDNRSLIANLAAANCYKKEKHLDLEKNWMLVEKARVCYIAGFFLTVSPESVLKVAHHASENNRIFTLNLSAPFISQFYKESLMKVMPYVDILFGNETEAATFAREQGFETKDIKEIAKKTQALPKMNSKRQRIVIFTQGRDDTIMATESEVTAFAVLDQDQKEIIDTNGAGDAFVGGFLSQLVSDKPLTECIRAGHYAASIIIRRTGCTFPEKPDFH

IC50 [nM] | SMILES
82 | Cn1nc(-c2cccc(Br)c2)c2c(C#Cc3ccc(N4CCOCC4)nc3)ncnc21
22 | Brc1cccc(-c2[nH]nc3ncnc(C#Cc4ccc(N5CCOCC5)nc4)c23)c1
> 1000 | Nc1ncnc2cc(-c3ccc(N4CCOCC4)nc3)n(Cc3ccccc3)c12
7.5 | CN(C)c1ccc(C#Cc2ncnc3c2c(-c2cccc(Br)c2)nn3C)cn1
120 | c1ccc(CCNc2ncnc3nc(-c4ccc(N5CCOCC5)nc4)cnc23)cc1
> 1000 | Brc1cccc(-c2nn(Cc3ccccc3)c3ncnc(C#Cc4ccc(N5CCOCC5)nc4)c23)c1

The next lines start with the molecule.

SMILES | IC50 [nM]
Nc1ncnc(C#Cc2ccc(N3CCOCC3)nc2)c1Cc1cccc(Br)c1 | 22
CN(Cc1ccccc1)c1c(N)ncnc1C#Cc1ccc(N2CCOCC2)nc1 | 30
c1ccc(CCCCNc2ncnc3nc(-c4ccc(N5CCOCC5)nc4)cnc23)cc1 | 82
Nc1ncnc2nc(-c3ccc(N4CCOCC4)nc3)cnc12 | 460
c1ccc(CCCNc2ncnc3nc(-c4ccc(N5CCOCC5)nc4)cnc23)cc1 | 72
CN(C)c1ccc(C#Cc2[nH]cnc3nnc(-c4cccc(Br)c4)c2-3)cn1 | 75
CN(C)c1ccc(C#Cc2ncnc3n[nH]c(-c4ccccc4)c23)cn1 | 100
c1ccc2c(CCNc3ncnc4nc(-c5ccc(N6CCOCC6)nc5)cnc34)c[nH]c2c1 | 300
